Test results: ChEMBL document CHEMBL4477261, “Design, synthesis and evaluation of the multidrug resistance-reversing activity of pyridine acid esters of podophyllotoxin in human leukemia cells” (Bioorg Med Chem Lett, 2016)
Active and inactive are the calls of the source. The calls are words filed in the database; no cut-off is given here.

What was measured:
[1] = system: K562/Adr; assay: Antiproliferative activity against human K562/ADR cells after 72 hrs by CCK8 assay; format: functional, cell-based
[2] = system: K562; assay: Antiproliferative activity against human K562 cells after 72 hrs by CCK8 assay; format: functional, cell-based; conditions: K562, 72 h
[3] = system: K562; assay: Resistance factor, ratio of IC50 for human K562/ADR cells to IC50 for human K562 cells; format: functional
[4] = system: K562/Adr; assay: Potency index, ratio of podophyllotoxin IC50 to compound IC50 for human K562/ADR cells; format: functional
[5] = system: K562/Adr; assay: Potency index, ratio of etoposide IC50 to compound IC50 for human K562/ADR cells; format: functional
[6] = system: K562/Adr; assay: Potency index, ratio of adriamycin IC50 to compound IC50 for human K562/ADR cells; format: functional
[7] = system: K562; assay: Potency index, ratio of etoposide IC50 to compound IC50 for human K562 cells; format: functional
[8] = system: K562; assay: Potency index, ratio of adriamycin IC50 to compound IC50 for human K562 cells; format: functional
[9] = system: K562/Adr; assay: Cell cycle arrest in human K562/ADR cells assessed as accumulation in S phase at 0.05 uM after 48 hrs by propidium iodide staining based flow cytometry (reference value: 43.39 +/- 0.69%); format: functional
[10] = system: K562/Adr; assay: Cell cycle arrest in human K562/ADR cells assessed as accumulation in S phase at 0.1 uM after 48 hrs by propidium iodide staining based flow cytometry (reference value: 43.39 +/- 0.69%); format: functional
[11] = system: K562/Adr; assay: Induction of apoptosis in human K562/ADR cells assessed as live cells at 0.05 uM after 48 hrs by Annexin V-APC/7-AAD staining based flow cytometry (reference value: 91.65%); format: functional
[12] = system: K562/Adr; assay: Induction of apoptosis in human K562/ADR cells assessed as early apoptotic cells at 0.05 uM after 48 hrs by Annexin V-APC/7-AAD staining based flow cytometry (reference value: 1.99%); format: functional
[13] = system: K562/Adr; assay: Induction of apoptosis in human K562/ADR cells assessed as late apoptotic cells at 0.05 uM after 48 hrs by Annexin V-APC/7-AAD staining based flow cytometry (reference value: 3.89%); format: functional
[14] = system: K562/Adr; assay: Induction of apoptosis in human K562/ADR cells assessed as necrotic cells at 0.05 uM after 48 hrs by Annexin V-APC/7-AAD staining based flow cytometry (reference value: 2.47%); format: functional
[15] = system: K562/Adr; assay: Induction of apoptosis in human K562/ADR cells assessed as live cells at 0.1 uM after 48 hrs by Annexin V-APC/7-AAD staining based flow cytometry (reference value: 91.65%); format: functional
[16] = system: K562/Adr; assay: Induction of apoptosis in human K562/ADR cells assessed as early apoptotic cells at 0.1 uM after 48 hrs by Annexin V-APC/7-AAD staining based flow cytometry (reference value: 1.99%); format: functional
[17] = system: K562/Adr; assay: Induction of apoptosis in human K562/ADR cells assessed as late apoptotic cells at 0.1 uM after 48 hrs by Annexin V-APC/7-AAD staining based flow cytometry (reference value: 3.89%); format: functional
[18] = system: K562/Adr; assay: Induction of apoptosis in human K562/ADR cells assessed as necrotic cells at 0.1 uM after 48 hrs by Annexin V-APC/7-AAD staining based flow cytometry (reference value: 2.47%); format: functional
[19] = system: K562/Adr; assay: Induction of apoptosis in human K562/ADR cells assessed as nuclear fragmentation at 0.05 to 0.1 uM after 48 hrs by Hoechst 33342 staining based fluorescent microscopic analysis; format: functional, cell-based
[20] = system: K562/Adr; assay: Induction of apoptosis in human K562/ADR cells assessed as chromatin condensation at 0.05 to 0.1 uM after 48 hrs by Hoechst 33342 staining based fluorescent microscopic analysis; format: functional, cell-based
[21] = molecular target: T1, Mitogen-activated protein kinase; ERK1/ERK2 (Homo sapiens) (UniProt P27361+P28482); assay: Induction of ERK1/2 phosphorylation in human K562/ADR cells at 0.05 uM after 48 hrs by Western blot analysis relative to control; format: cell-based
[22] = molecular target: T1, Mitogen-activated protein kinase; ERK1/ERK2 (Homo sapiens); assay: Induction of ERK1/2 phosphorylation in human K562/ADR cells at 0.1 uM after 48 hrs by Western blot analysis relative to control; format: cell-based
[23] = molecular target: T1, Mitogen-activated protein kinase; ERK1/ERK2 (Homo sapiens); assay: Induction of ERK1/2 phosphorylation in human K562/ADR cells at 0.1 uM after 48 hrs in presence of ERK1/2 inhibitor U0126 by Western blot analysis relative to control; format: cell-based
[24] = system: K562/Adr; assay: Effect on total ERK1/2 protein expression level in human K562/ADR cells at 0.05 uM after 48 hrs by Western blot analysis relative to control; format: ADME, cell-based
[25] = system: K562/Adr; assay: Effect on total ERK1/2 protein expression level in human K562/ADR cells at 0.1 uM after 48 hrs by Western blot analysis relative to control; format: ADME, cell-based
[26] = system: K562/Adr; assay: Effect on total ERK1/2 protein expression level in human K562/ADR cells at 0.1 uM after 48 hrs in presence of ERK1/2 inhibitor U0126 by Western blot analysis relative to control; format: ADME, cell-based
[27] = molecular target: T1, Mitogen-activated protein kinase; ERK1/ERK2 (Homo sapiens); assay: Activation of ERK1/2 signalling in human K562/ADR cells assessed as suppression of CDK1 protein expression at 0.05 uM after 48 hrs by Western blot analysis relative to control; format: cell-based
[28] = molecular target: T1, Mitogen-activated protein kinase; ERK1/ERK2 (Homo sapiens); assay: Activation of ERK1/2 signalling in human K562/ADR cells assessed as suppression of CDK1 protein expression at 0.1 uM after 48 hrs by Western blot analysis relative to control; format: cell-based
[29] = molecular target: T1, Mitogen-activated protein kinase; ERK1/ERK2 (Homo sapiens); assay: Activation of ERK1/2 signalling in human K562/ADR cells assessed as suppression of CDK1 protein expression at 0.1 uM after 48 hrs in presence of ERK1/2 inhibitor U0126 by Western blot analysis relative to control; format: cell-based
[30] = molecular target: T1, Mitogen-activated protein kinase; ERK1/ERK2 (Homo sapiens); assay: Activation of ERK1/2 signalling in human K562/ADR cells assessed as suppression of CyclinB1 protein expression at 0.05 uM after 48 hrs by Western blot analysis relative to control; format: cell-based
[31] = molecular target: T1, Mitogen-activated protein kinase; ERK1/ERK2 (Homo sapiens); assay: Activation of ERK1/2 signalling in human K562/ADR cells assessed as suppression of CyclinB1 protein expression at 0.1 uM after 48 hrs by Western blot analysis relative to control; format: cell-based
[32] = molecular target: T1, Mitogen-activated protein kinase; ERK1/ERK2 (Homo sapiens); assay: Activation of ERK1/2 signalling in human K562/ADR cells assessed as suppression of CyclinB1 protein expression at 0.1 uM after 48 hrs in presence of ERK1/2 inhibitor U0126 by Western blot analysis relative to control; format: cell-based
[33] = molecular target: T1, Mitogen-activated protein kinase; ERK1/ERK2 (Homo sapiens); assay: Activation of ERK1/2 signalling in human K562/ADR cells assessed as increase in cleaved caspase-3 expression at 0.05 uM after 48 hrs by Western blot analysis relative to control; format: cell-based
[34] = molecular target: T1, Mitogen-activated protein kinase; ERK1/ERK2 (Homo sapiens); assay: Activation of ERK1/2 signalling in human K562/ADR cells assessed as increase in cleaved caspase-3 expression at 0.1 uM after 48 hrs by Western blot analysis relative to control; format: cell-based
[35] = molecular target: T1, Mitogen-activated protein kinase; ERK1/ERK2 (Homo sapiens); assay: Activation of ERK1/2 signalling in human K562/ADR cells assessed as increase in cleaved caspase-3 expression at 0.1 uM after 48 hrs in presence of ERK1/2 inhibitor U0126 by Western blot analysis relative to control; format: cell-based
[36] = molecular target: T1, Mitogen-activated protein kinase; ERK1/ERK2 (Homo sapiens); assay: Activation of ERK1/2 signalling in human K562/ADR cells assessed as increase in cleaved caspase-8 expression at 0.05 uM after 48 hrs by Western blot analysis relative to control; format: cell-based
[37] = molecular target: T1, Mitogen-activated protein kinase; ERK1/ERK2 (Homo sapiens); assay: Activation of ERK1/2 signalling in human K562/ADR cells assessed as increase in cleaved caspase-8 expression at 0.1 uM after 48 hrs by Western blot analysis relative to control; format: cell-based
[38] = molecular target: T1, Mitogen-activated protein kinase; ERK1/ERK2 (Homo sapiens); assay: Activation of ERK1/2 signalling in human K562/ADR cells assessed as increase in cleaved caspase-8 expression at 0.1 uM after 48 hrs in presence of ERK1/2 inhibitor U0126 by Western blot analysis relative to control; format: cell-based
[39] = molecular target: T1, Mitogen-activated protein kinase; ERK1/ERK2 (Homo sapiens); assay: Activation of ERK1/2 signalling in human K562/ADR cells assessed as increase in cleaved caspase-9 expression at 0.05 uM after 48 hrs by Western blot analysis relative to control; format: cell-based
[40] = molecular target: T1, Mitogen-activated protein kinase; ERK1/ERK2 (Homo sapiens); assay: Activation of ERK1/2 signalling in human K562/ADR cells assessed as increase in cleaved caspase-9 expression at 0.1 uM after 48 hrs by Western blot analysis relative to control; format: cell-based
[41] = molecular target: T1, Mitogen-activated protein kinase; ERK1/ERK2 (Homo sapiens); assay: Activation of ERK1/2 signalling in human K562/ADR cells assessed as increase in cleaved caspase-9 expression at 0.1 uM after 48 hrs in presence of ERK1/2 inhibitor U0126 by Western blot analysis relative to control; format: cell-based
[42] = molecular target: T1, Mitogen-activated protein kinase; ERK1/ERK2 (Homo sapiens); assay: Activation of ERK1/2 signalling in human K562/ADR cells assessed as suppression of P-gp expression at 0.05 uM after 48 hrs by Western blot analysis relative to control; format: cell-based
[43] = molecular target: T1, Mitogen-activated protein kinase; ERK1/ERK2 (Homo sapiens); assay: Activation of ERK1/2 signalling in human K562/ADR cells assessed as suppression of P-gp expression at 0.1 uM after 48 hrs by Western blot analysis relative to control; format: cell-based
[44] = molecular target: T1, Mitogen-activated protein kinase; ERK1/ERK2 (Homo sapiens); assay: Activation of ERK1/2 signalling in human K562/ADR cells assessed as suppression of P-gp expression at 0.1 uM after 48 hrs in presence of ERK1/2 inhibitor U0126 by Western blot analysis relative to control; format: cell-based

T1 sequence (P27361 whole entry, looked up): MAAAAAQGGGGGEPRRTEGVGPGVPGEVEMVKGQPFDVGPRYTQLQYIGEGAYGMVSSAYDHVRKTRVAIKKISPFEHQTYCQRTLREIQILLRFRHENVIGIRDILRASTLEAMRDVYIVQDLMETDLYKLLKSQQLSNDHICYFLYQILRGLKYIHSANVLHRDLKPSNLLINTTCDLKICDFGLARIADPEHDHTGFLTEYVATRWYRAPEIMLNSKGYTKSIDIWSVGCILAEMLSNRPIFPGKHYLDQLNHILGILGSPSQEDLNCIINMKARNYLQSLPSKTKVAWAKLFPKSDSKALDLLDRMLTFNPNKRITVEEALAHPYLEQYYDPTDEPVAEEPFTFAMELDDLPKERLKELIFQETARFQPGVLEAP
T1 sequence (P28482 whole entry, looked up): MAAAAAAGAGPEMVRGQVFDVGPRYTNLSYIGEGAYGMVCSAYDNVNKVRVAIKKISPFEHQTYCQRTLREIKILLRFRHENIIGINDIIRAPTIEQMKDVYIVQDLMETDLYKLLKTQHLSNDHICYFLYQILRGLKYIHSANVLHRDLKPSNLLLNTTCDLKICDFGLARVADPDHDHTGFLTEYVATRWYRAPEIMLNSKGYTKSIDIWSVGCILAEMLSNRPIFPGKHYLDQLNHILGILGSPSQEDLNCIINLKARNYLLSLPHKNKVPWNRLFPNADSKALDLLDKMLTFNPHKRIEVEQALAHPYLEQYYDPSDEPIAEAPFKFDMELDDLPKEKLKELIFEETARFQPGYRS

`COc1cc([C@@H]2c3cc4c(cc3[C@H](OC(=O)c3ccc(Br)cn3)[C@H]3COC(=O)[C@H]23)OCO4)cc(OC)c1OC` was tested, and the IC50 [1] was 160 nM, the IC50 [2] was 19 nM and the “Ratio IC50” value [3] was 8.421.

In the case of `COc1cc([C@@H]2c3cc4c(cc3[C@H](OC(=O)c3cccc(Br)n3)[C@H]3COC(=O)[C@H]23)OCO4)cc(OC)c1OC`, the IC50 [1] is reported as 46 nM, the IC50 [2] is reported as 25 nM and the “Ratio IC50” value [3] is reported as 1.84. For the same compound, the “Ratio IC50” value [4] was 0.54, the “Ratio IC50” value [5] was 44.02 and the “Ratio IC50” value [6] was 408.23. For the same compound, the “Ratio IC50” value [7] was 16.52, the “Ratio IC50” value [8] was 8.8 and the Activity [9] was 53.74%. The Activity [10] was 64.17%, the Activity [11] was 67.37% and the Activity [12] was 7.42%. For the same compound, the Activity [13] was 18.84%, the Activity [14] was 6.37% and the Activity [15] was 41.01%. It also gave an Activity [16] of 9.15%, an Activity [17] of 44.02% and an Activity [18] of 5.82%. The Activity [19] was “Active”, the Activity [20] was “Active” and the fold change (FC) [21] was 0.32. The fold change (FC) [22] was 0.71, the fold change (FC) [23] was 0.07 and the “fold change (FC)” value [24] was 0.94. For the same compound, the “fold change (FC)” value [25] was 0.89, the “fold change (FC)” value [26] was 0.65 and the fold change (FC) [27] was 0.81. The fold change (FC) [28] was 0.46, the fold change (FC) [29] was 0.71 and the fold change (FC) [30] was 0.25. For the same compound, the fold change (FC) [31] was 0.15, the fold change (FC) [32] was 0.2 and the fold change (FC) [33] was 0.47. The fold change (FC) [34] was 0.64, the fold change (FC) [35] was 0.52 and the fold change (FC) [36] was 0.38. The fold change (FC) [37] was 0.57, the fold change (FC) [38] was 0.4 and the fold change (FC) [39] was 0.49. It also gave a fold change (FC) [40] of 0.75, a fold change (FC) [41] of 0.59 and a fold change (FC) [42] of 0.26. The fold change (FC) [43] was 0.1 and the fold change (FC) [44] was 0.31.

With `COc1cc([C@@H]2c3cc4c(cc3[C@H](OC(=O)c3cccnc3OC)[C@H]3COC(=O)[C@H]23)OCO4)cc(OC)c1OC` the IC50 [1] was 145 nM, the IC50 [2] was 47 nM and the “Ratio IC50” value [3] was 3.085.
